In patent US4354039A, “Chlorocitric acids” (Hoffmann-La Roche Inc., priority 1981, dated 1982):
Like-named read-outs stand apart in the source and are kept apart here.

Key:
[1] = Effect of stereoisomers on food consumption of meal-fed rats (Example 14); format: in vivo, Charles River female rats
Protocol: Animals were fasted 48 hr, then meal-fed the 70% glucose diet described by A. C. […] Following 5 to 12 days alimentation on the meal-feeding regimen, rats were dosed with the appropriate compounds orally by intubation 1/2 hr before the 3 hr meal. Food cups were weighed immediately after the meal. The control group consisted of 5 to 10 rats, while the experimental group consisted of 4 to 6 rats.

[2] = Anorectic activities of stereoisomers, 3-day food consumption and body weight gain (Example 16); format: in vivo, Charles River female rats; conditions: 1.32 mmoles/kg oral, 3 days
Protocol: Charles River female rats (Charles River Breeding Laboratories, Wilmington, Mass.), weighing 196 to 210 g, were individually housed in wire-bottomed cages in a temperature-regulated (22° C.) light-controlled room (12 hr light, 6 a.m. to 6 p.m. and 12 hr dark, 6 p.m. to 6 a.m.). Animals were fasted 48 hr, then meal-fed a 70% glucose diet from 8 to 11 a.m. Following 5 to 12 days alimentation on the meal-feeding regimen, rats were dosed with the appropriate compounds orally by intubation 1/2 hr before the 3 hr meal for 3 days. The total food consumption and body weight gained during the 3 day period were determined. The control group consisted of 16 rats, while the experimental group consists of 8 rats.

isolated rat hepatocytes = assay: Fatty acid and cholesterol synthesis and CO2 production in isolated hepatocytes (Example 23); format: cell-based, Female Charles River rats; conditions: 2 mM, 60 min, 37° C.; for activity at 2000 µM: Rattus norvegicus, Hepatocyte, 1 h
Protocol: Female Charles River rats were fasted 48 hr, then meal-fed a 1% corn oil, 70% glucose diet for 7 to 14 days from 8 to 11 a.m. The isolated rat hepatocytes were prepared by perfusing the liver in situ. The hepatocytes were incubated in an oscillating water bath at 37° C. for 60 min. […] All incubations were done in triplicate and all experiments were repeated at least twice. […] The contents of the center well were transferred to scintillation counting fluid and ^14 CO2 content was determined. […] The media was then acidified, extracted with hexane, and the extract counted (to determine the rate of lipogenesis). The conversion of ^3 H2 O and [^14 C]alanine into fatty acids or sterols was determined in a PDS/3, Mark II liquid scintillation counting system.

[3] = Effect on stomach emptying, [14C] glucose load (Example 25); format: in vivo, Rats; conditions: 0.33 mmoles/kg oral, 60 min after [14C] glucose load
Protocol: Rats were trained to consume a 3 hr 70% glucose meal from 8 a.m. to 11 a.m. daily. On the experimental day, compounds were administered orally by intubation 30 min before a [^14 C] glucose load was given also by intubation. […] Sixty minutes later the rats were killed by decapitation; blood and stomachs were collected on ice.
Data are expressed as follows: dpm×10^3 per ml of serum and dpm×10^3 per stomach.

[4] = Food intake in dogs, pyramiding oral doses (Examples 26 and 27); format: in vivo, beagle dogs
Protocol: Twelve beagle dogs of both sexes weighing 7.6-12.2 kg were used for this test. The test compounds were contained in gelatin capsules for oral administration to two dogs of each sex. The animals were weighed and food consumption calculated daily excluding weekends throughout the test period. Each animal received 800 grams of diet daily consisting of 400 grams of Wayne pellet dog food mixed with 400 ml distilled water. The animals received pyramiding oral doses of the test compound over the three week period. On Monday and Tuesday of the first week the animals were weighed and food consumption was recorded (control). […] Doses of 30, 100 and 300 mg/kg were administered on Monday, Wednesday and Friday respectively during the second week. A final dose of 1000 mg/kg was administered on Monday of the third week.
Food intake was determined by the procedure at pyramiding doses described in EXAMPLE 26.

[5] = test day 8, dose 100 mg/kg oral
[6] = test day 10, dose 300 mg/kg oral
[7] = test day 13, dose 1000 mg/kg oral

O=C(O)C[C@](O)(C(=O)O)[C@H](Cl)C(=O)O [(+)-threo-Chlorocitric acid]
Food Consumption, % of control ([1]; 0.66 mmoles/kg oral): 83 % of control | Food Consumption, % of control ([1]; 2.63 mmoles/kg oral): 38 % of control | 3-Day Body Weight Gain, % of initial body weight [2]: -1.7 % of initial body weight | 3-Day Food Consumption, % of control [2]: 93 % of control | CO2 Production, [14C]alanine converted (isolated rat hepatocytes; 2000 µM): 100 % of control | Cholesterol Synthesis, [14C]alanine converted (isolated rat hepatocytes; 2000 µM): 88 % of control | Fatty Acid Synthesis, 3H2O converted (isolated rat hepatocytes; 2000 µM): 94 % of control | Fatty Acid Synthesis, [14C]alanine converted (isolated rat hepatocytes; 2000 µM): 97 % of control | activity at 2000 µM (isolated rat hepatocytes; read-out: CO2 Production, [14C]alanine converted): 114% | activity at 2000 µM (isolated rat hepatocytes; read-out: Cholesterol Synthesis, [14C]alanine converted): 69% | activity at 2000 µM (isolated rat hepatocytes; read-out: Fatty Acid Synthesis, 3H2O converted): 93% | activity at 2000 µM (isolated rat hepatocytes; read-out: Fatty Acid Synthesis, [14C]alanine converted): 102% | Serum, % of control [3]: 60 % of control | Stomach Contents, % of control [3]: 220 % of control | Food Consumption ([4]; test day 1, dose 3 mg/kg oral): 430 ± 109 g | Food Consumption, % of control ([4]; test day 1, dose 3 mg/kg oral): 70 % of control | Food Consumption ([4]; test day 2, no dose): 502 ± 109 g | Food Consumption, % of control ([4]; test day 2, no dose): 82 % of control | Food Consumption ([4]; test day 3, dose 10 mg/kg oral): 367 ± 114 g | Food Consumption, % of control ([4]; test day 3, dose 10 mg/kg oral): 60 % of control | Food Consumption ([4]; test day 6, dose 30 mg/kg oral): 629 ± 64 g | Food Consumption, % of control ([4]; test day 6, dose 30 mg/kg oral): 103 % of control | Food Consumption ([4]; test day 7, no dose): 397 ± 87 g | Food Consumption, % of control ([4]; test day 7, no dose): 65 % of control | Food Consumption [4, 5]: 477 ± 75 g | Food Consumption, % of control [4, 5]: 78 % of control | Food Consumption ([4]; test day 9, no dose): 585 ± 69 g | Food Consumption, % of control ([4]; test day 9, no dose): 96 % of control | Food Consumption [4, 6]: 436 ± 60 g | Food Consumption, % of control [4, 6]: 71 % of control | Food Consumption [4, 7]: 433 ± 125 g | Food Consumption, % of control [4, 7]: 71 % of control | Food Consumption ([4]; test day 14, no dose): 518 ± 19 g | Food Consumption, % of control ([4]; test day 14, no dose): 85 % of control | Food Consumption ([4]; test day 15, no dose): 622 ± 69 g | Food Consumption, % of control ([4]; test day 15, no dose): 102 % of control | Food Consumption ([4]; test day 16, no dose): 564 ± 106 g | Food Consumption, % of control ([4]; test day 16, no dose): 92 % of control | Food Consumption ([4]; test day 17, no dose): 597 ± 36 g | Food Consumption, % of control ([4]; test day 17, no dose): 98 % of control | Food Consumption ([4]; test day 21, no dose): 578 ± 79 g | Food Consumption, % of control ([4]; test day 21, no dose): 95 % of control | Food Consumption ([4]; test day 22, no dose): 668 ± 57 g | Food Consumption, % of control ([4]; test day 22, no dose): 110 % of control | Food Consumption ([4]; test day 23, no dose): 516 ± 66 g | Food Consumption, % of control ([4]; test day 23, no dose): 85 % of control | Food Consumption ([4]; test day 24, no dose): 539 ± 39 g | Food Consumption, % of control ([4]; test day 24, no dose): 88 % of control | Food Consumption ([4]; test day 27, no dose): 479 ± 92 g | Food Consumption, % of control ([4]; test day 27, no dose): 79 % of control | Food Consumption ([4]; test day 28, no dose): 710 ± 91 g | Food Consumption, % of control ([4]; test day 28, no dose): 116 % of control
